The record followed here is patent US10882864B2, “Process for preparing BTK inhibitors” (Genentech, Inc., priority 2016, dated 2021).

The data set is described as follows: Solubility in various solvents (sonicated at 25° C., centrifuged, filtered, HPLC). The data set is classed as physicochemical. As to conditions: thermodynamic from solid, read-out: Solubility (mg/mL at 25° C.). On the procedure: The solubility of compound 141 was evaluated in various solvents. In the evaluation, a compound 141 sample was place into a 1.5 mL vial, 1 mL of the solvent was added, and the mixture was sonicated at 25° C. for 5 minutes. The mixture was then centrifuged, the upper supernatant was filtered through a microfilter, a filtrate aliquot was taken, diluted with acetonitrile, filtered, and injected into an HPLC column. The results are summarized in Example 8 Table 4 below where the purity of compound 141 was greater than 98 area % by HPLC.
The solubility of compound 180 was evaluated in various solvents. In the evaluation, a compound 180 sample was placed into a 1.5 mL vial, 1 mL of the solvent was added, and the mixture was sonicated at 25° C. for 5 minutes. The mixture was then centrifuged, the upper supernatant was filtered through a microfilter, a filtrate aliquot was taken, diluted with acetonitrile, filtered, and injected into an HPLC column. The results are summarized in Example 9 Table 4 below where the purity of compound 180 was greater than 98 area % by HPLC.

Where [1] appears, read: organic solvent or mixture, solvent Acetone.
Where [2] appears, read: organic solvent or mixture, solvent Acetonitrile.
Setting [3] is: organic solvent or mixture, solvent Dichloromethane.
Where [4] appears, read: organic solvent or mixture, solvent Dimethylformamide.
[5] abbreviates: organic solvent or mixture, solvent Ethanol.
The mark [6] stands for this setting: organic solvent or mixture, solvent Ethyl acetate.
[7] abbreviates: organic solvent or mixture, solvent Heptane.
[8] abbreviates: organic solvent or mixture, solvent Isopropanol.
Where [9] appears, read: organic solvent or mixture, solvent Methanol.
[10] abbreviates: organic solvent or mixture, solvent Methyl tetrahydrofuran.
Where [11] appears, read: organic solvent or mixture, solvent Petroleum ether.
Setting [12] is: organic solvent or mixture, solvent Tetrahydrofuran.
Setting [13] is: organic solvent or mixture, solvent Toluene.
[14] abbreviates: organic solvent or mixture, solvent tert-Butyl methyl ether.

In brackets after ≈: the same amount, converted by molar mass. Read-outs that look alike come from different tables or passages of the source.

With `C[C@H]1CN(C2COC2)CCN1c1ccc(N)nc1` [Compound 141], the solubility at 5 min amounted to 154 mg/mL (≈ 619 mM) under setting [1]; 97.7 mg/mL (≈ 393 mM) under setting [2]; 269 mg/mL (≈ 1080 mM) under setting [3]; 200 mg/mL (≈ 803 mM) under setting [4]; 154 mg/mL (≈ 618 mM) under setting [5]; 82.3 mg/mL (≈ 331 mM) under setting [6]. In addition, the solubility at 5 min came to 0.32 mg/mL (≈ 1.29 mM) under setting [7]; 222 mg/mL (≈ 895 mM) under setting [8]; 221 mg/mL (≈ 892 mM) under setting [9]; 83 mg/mL (≈ 334 mM) under setting [10]; 0.26 mg/mL (≈ 1.05 mM) under setting [11]; 175 mg/mL (≈ 705 mM) under setting [12]. The solubility at 5 min was determined as 20.6 mg/mL (≈ 83 mM) under setting [13], 7.39 mg/mL (≈ 29.8 mM) under setting [14] and 30.7 mg/mL (≈ 124 mM) (solvent Water).

For `C[C@H]1CN(C2COC2)CCN1c1ccc(Nc2cc(Br)cn(C)c2=O)nc1` [Compound 180], the solubility at 5 min was determined as 3.73 mg/mL (≈ 8.59 mM) under setting [1]; 2.3 mg/mL (≈ 5.3 mM) under setting [2]; 50.6 mg/mL (≈ 116 mM) under setting [3]; 20.8 mg/mL (≈ 47.9 mM) under setting [4]; 44.7 mg/mL (≈ 103 mM) (organic solvent or mixture, solvent Dioxane); 1.52 mg/mL (≈ 3.5 mM) under setting [5]. In addition, the solubility at 5 min is 4.53 mg/mL (≈ 10.4 mM) under setting [6]; 0.03 mg/mL (≈ 0.0691 mM) under setting [7]; 2.65 mg/mL (≈ 6.1 mM) under setting [8]; 1.35 mg/mL (≈ 3.11 mM) under setting [9]; 7.19 mg/mL (≈ 16.6 mM) under setting [10]; 0.03 mg/mL (≈ 0.0691 mM) under setting [11]. For the same molecule, the solubility at 5 min was found to be 24 mg/mL (≈ 55.3 mM) under setting [12], 9.81 mg/mL (≈ 22.6 mM) under setting [13], 1.25 mg/mL (≈ 2.88 mM) under setting [14] and 0.52 mg/mL (≈ 1.2 mM) (solvent Water).
